# Experimental data: publication PMC11995222, “Synthesis and Evaluation of Thiazolidinone-Isatin Hybrids for Selective Inhibition of Cancer-Related Carbonic Anhydrases” (ACS Medicinal Chemistry Letters, 2025)
# “Also recorded” adds a separate entry of the source.
# How the values were obtained:
# [1] = Cellular toxicity assay (MTT); format: cell-based, human; conditions: human, HuH-7 cells, MTT
# HuH-7 cells = assay: Cellular toxicity assay (MTT); format: cell-based, human; conditions: HuH-7 cells, 24, 48 and 72 h, up to 100 µM
Structure (SMILES),CC50 at 24 h ([1]; 24h) [µM],CC50 at 48 h ([1]; 48h) [µM],CC50 at 72 h ([1]; 72h) [µM],"viability at 24 h, 100 µM ([1]; 24h, highest concentration (100 µM), read-out: Percentage of HuH-7 cells viability at the highest compound concentration tested, 24h) [%]","viability at 48 h, 100 µM ([1]; 48h, highest concentration (100 µM), read-out: Percentage of HuH-7 cells viability at the highest compound concentration tested, 48h) [%]","viability at 72 h, 100 µM ([1]; 72h, highest concentration (100 µM), read-out: Percentage of HuH-7 cells viability at the highest compound concentration tested, 72h) [%]",toxicity (in words) (HuH-7 cells)
"CC[C@@]1(O)C(=O)OCc2c1cc1n(c2=O)Cc2cc3ccccc3nc2-1 [Camptothecin, reference compound]",> 10,8.5 ± 0.9,0.5 ± 0.02,–,–,–,–
NS(=O)(=O)c1ccc(/N=C2\S/C(=C3\C(=O)Nc4c(F)cccc43)C(=O)N2C2CC2)cc1 [compound 3h],> 100,> 100,> 100,70,60,60,weak toxicity; also recorded: nontoxic
